Source: patent EP1210948B1, “THERAPEUTC PEPTIDE FOR NERVOUS DISEASES” (NIPPON CHEMIPHAR CO., LTD., priority 1999, dated 2007)
Where a SMILES comes first, the peptide text is derived from it.

How the values were obtained:
[1] = test system: cells of rat cerebral cortex; test: Action on glutamate-induced neurocyte disorder (in vitro), propidium iodide staining; type: cell-based; conditions: for inhibitory action against neuronal death induced by glutamate: 4 day treatment, glutamate 1 mM
Method: The cerebral cortex of rat (0-day-old) was incubated at 37°C in a Hank's solution containing 1.5 mg/mL of dispase, and then cells were isolated. The neurocytes were dispersed on a poly-L-lysine-coated multiple well plate at a density of approx. 4 x 10^4 cells/cm^2, and then to the plate was added cytosine-β-arabinofuranoside (20 µM). The nerocytes were cultured on the plate for 4 days.
The nerocytes were identified by indirect fluorescent method using a neuro-filament antibody
The cultured neurocytes were washed with a Hank's solution and further incubated at 37°C for 30 minutes under atmospheric conditions. Incubated neurocytes were again incubated for 10 minutes in a Hank's solution containing glutamate. Then, they were washed, and further incubated for one hour. At 15 minutes before the incubation was complete, propidium iodide (4.6 µg/mL) was added. After the incubations were complete, the incubated neurocytes were washed with PBS (phosphate buffer solution containing sodium chloride), and then observed using fluorescence microscope.
The pGlu-Asn-Ser-Pro-Arg-Gly-NH2 acetate or AVP(4-9) was added to the 4 day-cultured solution prior to the glutamate treatment.

[2] = Toxicity test, subcutaneous injection; type: in vivo
Method: pGlu-Asn-Ser-Pro-Arg-Gly-NH2 acetate was subcutaneously injected to a SD strain rat at a dose of 1 mg/kg.

N=C(N)NCCC[C@H](NC(=O)[C@@H]1CCCN1C(=O)[C@H](CO)NC(=O)[C@H](CC(N)=O)NC(=O)[C@@H]1CCC(=O)N1)C(=O)NCC(N)=O [pGlu-Asn-Ser-Pro-Arg-Gly-NH2 acetate] (HELM PEPTIDE1{[Glp].N.S.P.R.G.[am]}$$$$V2.0)
inhibitory action against neuronal death induced by glutamate ([1]; 0.1 nM test substance): showed an inhibitory action
inhibitory action against neuronal death induced by glutamate ([1]; 1 nM test substance): showed an inhibitory action
inhibitory action against glutamate toxicity in the presence of V1 receptor antagonist [Pmp^1, Tyr(Me)^2]AVP ([1]; [Pmp^1, Tyr(Me)^2]AVP 0.1 nM): reduced
inhibitory action against glutamate toxicity in the presence of V1 receptor antagonist [Pmp^1, Tyr(Me)^2]AVP ([1]; [Pmp^1, Tyr(Me)^2]AVP 1 nM): reduced
changes observed after subcutaneous injection ([2]; rat, in vivo, sc, 1 mg/kg): No noticeable changes were observed

N=C(N)NCCC[C@H](NC(=O)[C@@H]1CCCN1C(=O)[C@H](CO)NC(=O)[C@H](CC(N)=O)NC(=O)[C@@H]1CCC(=O)N1)C(=O)NCC(N)=O [pGlu-Asn-Ser-Pro-Arg-Gly-NH2] (HELM PEPTIDE1{[Glp].N.S.P.R.G.[am]}$$$$V2.0)
toxicity in the conventional toxicity test ([2]; summary statement): no specific toxicity

[pGlu^4, Cyt^5] AVP (4-9) [AVP(4-9), reference compound]
inhibition of the glutamate-induced neuronal death ([1]; 1 µM test substance): inhibited
inhibition of the glutamate-induced neuronal death ([1]; 10 µM test substance): inhibited
